Laboratory results from patent US10030004B2, “Compounds and methods of use” (Medivation Technologies LLC, priority 2014, dated 2018).
Like-named read-outs stand apart in the source and are kept apart here.

Legend:
[1] = Pharmacokinetics and bioavailability in male mice after a single dose; assay type: in vivo; details: for AUC(0-t) / Cmax / Tmax / bioavailability / clearance / half-life: mouse, plasma; for half-life: read-out: Terminal t1/2 (converted)
[2] = Plasma and brain concentrations at 0.5 and 1 h in mice; assay type: in vivo; details: for concentration at 0.5 h / concentration at 1 h: male, mouse
[3] = target: ALK6 (BMPR1B) (Homo sapiens (Human), UniProt O00238); experiment: In vitro kinase assay, ALK6; assay type: biochemical; details: 10 μM ATP; read-out: Inhibition of ALK6 IC50
[4] = target: ALK3 (BMPR1A) (Homo sapiens (Human), UniProt P36894); experiment: In vitro kinase assay, ALK3; assay type: biochemical; details: read-out: Inhibition of ALK3 IC50
[5] = target: ALK2 (ACVR1) (Homo sapiens (Human), UniProt Q04771); experiment: In vitro kinase assay, ALK2; assay type: biochemical; details: read-out: Inhibition of ALK2 IC50
[6] = target: ALK1 (ACVRL1) (Homo sapiens (Human), UniProt P37023); experiment: In vitro kinase assay, ALK1; assay type: biochemical; details: 10 μM ATP; read-out: Inhibition of ALK1 IC50
[7] = brain, IV (2 mg/kg), 0.5 h, read-out: Brain concentration
[8] = brain, IV (2 mg/kg), 1 h, read-out: Brain concentration
[9] = brain, PO (10 mg/kg), 0.5 h, read-out: Brain concentration
[10] = brain, PO (10 mg/kg), 1 h, read-out: Brain concentration
[11] = plasma, IV (2 mg/kg), 0.5 h, read-out: Plasma concentration
[12] = plasma, IV (2 mg/kg), 1 h, read-out: Plasma concentration
[13] = plasma, PO (10 mg/kg), 0.5 h, read-out: Plasma concentration
[14] = plasma, PO (10 mg/kg), 1 h, read-out: Plasma concentration
[15] = brain, 2 mg/kg, IV, 0.5 h, read-out: Brain Concentration
[16] = brain, 2 mg/kg, IV, 1 h, read-out: Brain Concentration
[17] = brain, 10 mg/kg, PO, 0.5 h, read-out: Brain Concentration
[18] = brain, 10 mg/kg, PO, 1 h, read-out: Brain Concentration
[19] = plasma, 2 mg/kg, IV, 0.5 h, read-out: Plasma Concentration
[20] = plasma, 2 mg/kg, IV, 1 h, read-out: Plasma Concentration
[21] = plasma, 10 mg/kg, PO, 0.5 h, read-out: Plasma Concentration
[22] = plasma, 10 mg/kg, PO, 1 h, read-out: Plasma Concentration

ALK6 (BMPR1B), sequence (O00238 14-502): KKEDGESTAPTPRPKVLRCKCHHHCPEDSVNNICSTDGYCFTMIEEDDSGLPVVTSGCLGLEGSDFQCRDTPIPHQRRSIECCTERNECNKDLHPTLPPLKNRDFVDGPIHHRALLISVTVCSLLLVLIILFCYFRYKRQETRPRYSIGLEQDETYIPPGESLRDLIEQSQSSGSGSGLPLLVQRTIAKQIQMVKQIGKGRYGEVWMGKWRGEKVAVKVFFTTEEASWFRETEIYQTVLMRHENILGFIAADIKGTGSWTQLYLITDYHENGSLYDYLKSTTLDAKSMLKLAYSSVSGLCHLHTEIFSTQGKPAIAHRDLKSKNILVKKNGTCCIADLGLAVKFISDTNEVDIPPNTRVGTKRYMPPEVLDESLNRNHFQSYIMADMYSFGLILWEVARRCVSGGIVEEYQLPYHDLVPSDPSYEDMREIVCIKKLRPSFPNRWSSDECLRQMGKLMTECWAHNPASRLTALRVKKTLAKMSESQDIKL
ALK2 (ACVR1), sequence (Q04771 21-509): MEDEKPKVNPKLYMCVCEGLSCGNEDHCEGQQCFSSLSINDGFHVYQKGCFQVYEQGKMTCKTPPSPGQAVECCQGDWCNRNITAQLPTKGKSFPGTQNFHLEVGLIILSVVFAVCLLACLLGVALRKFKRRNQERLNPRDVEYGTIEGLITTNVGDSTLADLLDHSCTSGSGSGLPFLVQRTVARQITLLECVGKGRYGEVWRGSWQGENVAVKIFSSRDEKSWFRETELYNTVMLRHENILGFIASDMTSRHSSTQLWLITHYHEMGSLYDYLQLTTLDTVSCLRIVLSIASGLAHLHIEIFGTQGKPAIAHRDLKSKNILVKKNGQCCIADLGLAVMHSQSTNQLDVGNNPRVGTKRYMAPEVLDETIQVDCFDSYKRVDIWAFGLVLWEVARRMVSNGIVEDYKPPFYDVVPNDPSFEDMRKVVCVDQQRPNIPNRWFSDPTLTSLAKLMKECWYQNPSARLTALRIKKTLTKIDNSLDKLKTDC
ALK3 (BMPR1A), sequence (P36894 24-532): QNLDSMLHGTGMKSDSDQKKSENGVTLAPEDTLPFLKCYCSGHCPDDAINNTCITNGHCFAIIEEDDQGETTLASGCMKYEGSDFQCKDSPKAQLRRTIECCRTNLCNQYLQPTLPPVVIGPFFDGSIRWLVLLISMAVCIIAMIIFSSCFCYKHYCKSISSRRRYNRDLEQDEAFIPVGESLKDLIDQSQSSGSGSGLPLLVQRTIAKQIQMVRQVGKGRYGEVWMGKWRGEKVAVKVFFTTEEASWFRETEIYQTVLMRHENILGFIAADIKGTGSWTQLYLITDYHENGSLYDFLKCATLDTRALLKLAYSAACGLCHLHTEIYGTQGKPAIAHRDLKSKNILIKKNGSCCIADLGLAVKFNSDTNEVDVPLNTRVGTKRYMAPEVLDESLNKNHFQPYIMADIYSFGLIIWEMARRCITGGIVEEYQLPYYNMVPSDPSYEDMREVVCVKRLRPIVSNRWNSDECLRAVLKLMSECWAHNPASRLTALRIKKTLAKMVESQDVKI
ALK1 (ACVRL1), sequence (P37023 22-503): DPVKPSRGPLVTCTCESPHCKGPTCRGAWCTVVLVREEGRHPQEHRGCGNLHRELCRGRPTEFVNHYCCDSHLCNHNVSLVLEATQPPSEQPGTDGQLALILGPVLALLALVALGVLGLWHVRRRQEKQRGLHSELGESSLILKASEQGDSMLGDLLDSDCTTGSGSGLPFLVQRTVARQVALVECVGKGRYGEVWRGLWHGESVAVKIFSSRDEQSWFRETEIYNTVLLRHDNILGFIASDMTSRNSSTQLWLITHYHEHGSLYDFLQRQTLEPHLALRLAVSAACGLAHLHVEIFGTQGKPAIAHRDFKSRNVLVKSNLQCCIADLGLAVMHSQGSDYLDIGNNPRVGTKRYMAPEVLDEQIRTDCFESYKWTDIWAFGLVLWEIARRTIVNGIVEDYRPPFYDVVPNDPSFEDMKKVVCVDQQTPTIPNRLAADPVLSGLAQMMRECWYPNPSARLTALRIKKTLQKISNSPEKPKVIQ

V ([1]; intravenous, 2 mg/kg) [L/kg] | AUC(0-t) ([1]; intravenous, 2 mg/kg) [µM·h] | Cmax ([1]; intravenous, 2 mg/kg) [nM] | AUC(0-t) ([1]; oral, 10 mg/kg) [µM·h] | Cmax ([1]; oral, 10 mg/kg) [nM] | Tmax ([1]; oral, 10 mg/kg) [h] | bioavailability ([1]; oral, 10 mg/kg) [%] | clearance ([1]; intravenous, 2 mg/kg) [mL/min/kg] | half-life ([1]; intravenous, 2 mg/kg) [h] | Compound | IC50 [3] [µM] | half-life ([1]; oral, 10 mg/kg) [h] | IC50 ([5]; 10 μM ATP) [µM] | IC50 ([4]; 10 μM ATP) [µM] | further results
4.14 | 1.19 | 544 | 5.25 | 1570 | 0.5 | 88 | – | – | CC(C)c1cnc(-c2cc(Cl)ccc2F)cc1Nc1ccncc1C(=O)NC[C@H](C)O (single isomer, unassigned) [2a] | – | – | – | – | concentration at 0.5 h [2, 7]: 73.2 ng/mL; concentration at 1 h [2, 8]: 82.4 ng/mL; concentration at 0.5 h [2, 9]: 202 ng/mL; concentration at 1 h [2, 10]: 114 ng/mL; concentration at 0.5 h [2, 11]: 310 ng/mL; concentration at 1 h [2, 12]: 366 ng/mL; concentration at 0.5 h [2, 13]: 1570 ng/mL; concentration at 1 h [2, 14]: 905 ng/mL
– | 3.15 | 3610 | 9.79 | 3480 | 0.25 | 62.2 | 24.7 | 1.02 | CCc1cnc(-c2cc(Cl)ccc2F)cc1Nc1ccncc1C(=O)NC[C@H](C)O (single isomer, unassigned) [11a] | – | 1.65 | – | – | –
2.80 | 3.69 | 2150 | 14.5 | 4280 | 0.5 | 78.3 | 19.8 | 1.63 | CC(C)c1cnc(-c2cc(Cl)ccc2F)cc1Nc1ncncc1C(=O)NC[C@H](C)O (single isomer, unassigned) [12a] | – | 1.72 | – | – | –
0.967 | 4.41 | 3400 | 7.5 | 3420 | 0.5 | 34.1 | 17 | 0.655 | C[C@H](O)CNC(=O)c1cnccc1Nc1cc(-c2cc(Cl)ccc2F)ncc1N(C)C (single isomer, unassigned) [16a] | > 1000 | 2.36 | – | – | concentration at 0.5 h [2, 15]: 48 nM; concentration at 1 h [2, 16]: 19 nM; concentration at 0.5 h [2, 17]: 48 nM; concentration at 1 h [2, 18]: 25 nM; concentration at 0.5 h [2, 19]: 3040 nM; concentration at 1 h [2, 20]: 1230 nM; concentration at 0.5 h [2, 21]: 3420 nM; concentration at 1 h [2, 22]: 1690 nM
– | 1.11 | 2560 | 0.907 | 612 | 0.25 | 16.4 | 66 | – | C=C(C)c1c(Nc2ccncc2C(=O)NC[C@H](C)O)cc(-c2cc(Cl)ccc2F)nc1N (single isomer, unassigned) [23a] | > 100 | – | > 100 | > 100 | –
– | – | – | – | – | – | – | – | – | C=C(C)c1cnc(-c2cc(Cl)ccc2F)cc1Nc1ncncc1C(=O)NC[C@H](C)O [4a, (S)-4-(2-(5-chloro-2-fluorophenyl)-5-(prop-1-en-2-yl)pyridin-4-ylamino)-N-(2-hydroxypropyl)pyrimidine-5-carboxamide] | – | – | 10.6 | – | –
– | – | – | – | – | – | – | – | – | C=C(C)c1cnc(-c2cc(Cl)ccc2F)cc1Nc1ccncc1C(=O)N[C@@H](C)CO [7a, (S)-4-(2-(5-chloro-2-fluorophenyl)-5-(prop-1-en-2-yl)pyridin-4-ylamino)-N-(1-hydroxypropan-2-yl)nicotinamide] | – | – | 10.9 | > 100 | –
3.86 | 1.57 | 3010 | 2.54 | 1880 | 0.5 | 32.5 | – | – | CC(=O)NCCNC(=O)c1cnccc1Nc1cc(-c2cc(Cl)ccc2F)ncc1C(C)C [compound 14, N-(2-acetamidoethyl)-4-[[2-(5-chloro-2-fluoro-phenyl)-5-isopropyl-4-pyridyl]amino]pyridine-3-carboxamide] | – | – | – | – | –
21.1 | 1.19 | 520 | 0.927 | 198 | 1 | 15.5 | – | – | CC(C)c1cnc(-c2cc(Cl)ccc2F)cc1Nc1ccncc1C(=O)NCCN [compound 19, N-(2-aminoethyl)-4-[[2-(5-chloro-2-fluoro-phenyl)-5-isopropyl-4-pyridyl]amino]pyridine-3-carboxamide] | – | – | – | – | Brain Concentration ([2]; PO, 0.5 h): BLQ; Brain Concentration ([2]; PO, 1 h): BLQ; concentration at 0.5 h [2, 15]: 4 nM; concentration at 1 h [2, 16]: 3 nM; concentration at 0.5 h [2, 19]: 280 nM; concentration at 1 h [2, 20]: 183 nM; concentration at 0.5 h [2, 21]: 164 nM; concentration at 1 h [2, 22]: 198 nM
2.43 | 3.77 | 2460 | 16.2 | 7070 | 0.5 | 86.6 | – | 1.53 | CC(C)c1cnc(-c2cc(Cl)ccc2F)cc1Nc1ccncc1C(=O)NC(CO)CO [compound 22, 4-[[2-(5-chloro-2-fluoro-phenyl)-5-isopropyl-4-pyridyl]amino]-N-[2-hydroxy-1-(hydroxymethyl)ethyl]pyridine-3-carboxamide] | – | – | – | – | concentration at 0.5 h [2, 15]: 7 nM; concentration at 1 h [2, 16]: 5 nM; concentration at 0.5 h [2, 17]: 20 nM; concentration at 1 h [2, 18]: 15 nM; concentration at 0.5 h [2, 19]: 1690 nM; concentration at 1 h [2, 20]: 967 nM; concentration at 0.5 h [2, 21]: 7070 nM; concentration at 1 h [2, 22]: 3530 nM
– | – | – | – | – | – | – | – | – | CC(C)c1cnc(-c2ncccc2F)cc1Nc1ccnc2[nH]ccc12 [compound 29, 2-(3-fluoropyridin-2-yl)-5-(propan-2-yl)-N-{1H-pyrrolo[2,3-b]pyridin-4-yl}pyridin-4-amine] | 15.3 | – | – | – | IC50 [5]: 60.6 µM
– | – | – | – | – | – | – | – | – | CC(C)c1cnc(-c2ncccc2F)cc1Nc1ncnc2[nH]ccc12 [compound 30, 2-(3-fluoropyridin-2-yl)-5-(propan-2-yl)-N-{7H-pyrrolo[2,3-d]pyrimidin-4-yl}pyridin-4-amine] | 13.5 | – | 73 | > 10 | –
– | – | – | – | – | – | – | – | – | Fc1ccc(Cl)cc1-c1cc(Nc2ccnc3[nH]ccc23)c(C2CC2)cn1 [compound 32, 2-(5-chloro-2-fluorophenyl)-5-cyclopropyl-N-{1H-pyrrolo[2,3-b]pyridin-4-yl}pyridin-4-amine] | – | – | – | 3.33 | IC50 [5]: 5.84 µM
– | – | – | – | – | – | – | – | – | C=C(C)c1cnc(-c2cc(Cl)ccc2F)cc1Nc1ccncc1C(=O)N1CCCC1 [compound 34, 2-(5-chloro-2-fluorophenyl)-5-(prop-1-en-2-yl)-N-[3-(pyrrolidine-1-carbonyl)pyridin-4-yl]pyridin-4-amine] | – | – | > 10 | > 10 | IC50 [6]: > 10 µM
– | – | – | – | – | – | – | – | – | CC(C)c1cnc(-c2cc(Cl)ccc2F)cc1Nc1ncnc2[nH]ccc12 [compound 35, 2-(5-chloro-2-fluorophenyl)-5-(propan-2-yl)-N-{7H-pyrrolo[2,3-d]pyrimidin-4-yl}pyridin-4-amine] | – | – | – | – | IC50 [5]: 5.45 µM
– | – | – | – | – | – | – | – | – | CC(C)c1cnc(-c2cc(Cl)ccc2F)cc1Nc1ncnc2[nH]ncc12 [compound 36, 2-(5-chloro-2-fluorophenyl)-5-(propan-2-yl)-N-{1H-pyrazolo[3,4-d]pyrimidin-4-yl}pyridin-4-amine] | – | – | – | – | IC50 [5]: 8.93 µM; IC50 [4]: > 10 µM

Compound | V ([1]; intravenous, 2 mg/kg) [L/kg] | AUC(0-t) ([1]; intravenous, 2 mg/kg) [µM·h] | Cmax ([1]; intravenous, 2 mg/kg) [nM] | AUC(0-t) ([1]; oral, 10 mg/kg) [µM·h] | Cmax ([1]; oral, 10 mg/kg) [nM] | Tmax ([1]; oral, 10 mg/kg) [h] | bioavailability ([1]; oral, 10 mg/kg) [%] | clearance ([1]; intravenous, 2 mg/kg) [mL/min/kg] | half-life ([1]; intravenous, 2 mg/kg) [h] | IC50 [3] [µM] | half-life ([1]; oral, 10 mg/kg) [h] | IC50 ([5]; 10 μM ATP) [µM] | IC50 ([4]; 10 μM ATP) [µM] | further results
C=C(C)c1cnc(-c2cc(Cl)ccc2F)cc1Nc1ccncc1C(=O)NC[C@H](C)O (single isomer, unassigned) [3a] | 1.29 | 2.56 | 602 | 10.5 | 1650 | 0.25 | 82 | 12.8 | 3.86 | > 100 | 3.85 | – | – | concentration at 0.5 h [2, 7]: 173 ng/mL; concentration at 1 h [2, 8]: 168 ng/mL; concentration at 0.5 h [2, 9]: 305 ng/mL; concentration at 1 h [2, 10]: 406 ng/mL; concentration at 0.5 h [2, 11]: 432 ng/mL; concentration at 1 h [2, 12]: 365 ng/mL; concentration at 0.5 h [2, 13]: 1280 ng/mL; concentration at 1 h [2, 14]: 1250 ng/mL
COc1cnc(-c2cc(Cl)ccc2F)cc1Nc1ccncc1C(=O)NC[C@H](C)O (single isomer, unassigned) [13a] | 3.72 | 1.56 | 1420 | 5.64 | 1600 | 0.25 | 72.3 | 20.7 | 2.09 | – | 2.85 | – | – | IC50 [4]: > 100 µM
C=C(C)c1cnc(-c2cc(Cl)ccc2F)cc1Nc1ccncc1C(=O)NCCO [compound 26, 4-[[2-(5-chloro-2-fluoro-phenyl)-5-isopropenyl-4-pyridyl]amino]-N-(2-hydroxyethyl)pyridine-3-carboxamide] | 6.21 | 1.76 | 3000 | 2.36 | 1290 | 0.5 | 26.9 | 44.3 | 1.62 | > 100 | 1.66 | > 100 | > 100 | –
